From patent US9624266B2, “Brachiatin D and process for production thereof” (COUNCIL OF SCIENTIFIC & INDUSTRIAL RESEARCH, priority 2013, dated 2017)
Several values for one entry are separate records, joined by “and”; a condition that tells them apart may be missing. Equal entries are not always repeated. Non-standard residues stand in square brackets, D forms with d. Residues, ends and D or L forms follow the SMILES beside them. *: point of attachment. Aib = CC(C)(N)C(=O)O; X1 = CCC(C)C(CO)N*

Experiments:
A-549 = test: cells; format: cell-based, human; settings: for % age growth inhibition: A-549, 10 μM, 10 µM; for % growth inhibition: A-549, 20 μM, 20 µM
Method: (§1) For Cytotoxic assay, the MTT assay is useful for measuring the effect of a wide range of compounds on the in vitro growth of either normal or cancer cell lines. The assay was set up in a 96-well, flat-bottomed polystyrene microtiter plate. 3-5000 cancer cells were suspended per well in appropriate growth medium, and the cells were added in duplicate wells (triplicates were preferred). It was preferable to add the cells to the required number of wells in the plate prior to adding the peptaibol. After the cells were added to the plate, it was placed on an incubator for overnight incubation. After overnight incubation, the peptaibol was added at defined concentrations of 10, 20 and 50 μM to each set of duplicate wells and incubated for 48 hrs in CO2 incubator. The peptaibol was dissolved in dimethyl sulfoxide (DMSO) for the final addition. After 48 hr incubation, the MTT stock solution (2.5 μg/ml) was diluted with an equal volume of tissue culture medium and 20 μl of this solution was added directly to each well with a multichannel pipette. The plates were returned to the incubator for a period of at least 4 h. After 4 hr incubation, the plates were centrifuged at 1000 rpm for 10 min at ambient temperature, followed by inversion of the plates and blotting of excess medium. 150 μl of working DMSO was added to solubilize the MTT formazan product. A standard micro plate reader with adjustable wavelength across the visible spectrum was used. The OD values at 570 nm obtained for each set of triplicates corresponding to a specific concentration of a peptaibol was then transferred into a spreadsheet program.
(§2) Cytotoxicity assay was performed on a panel of cancer cell lines using fraction 4 (HF-4) as a test material. In order to determine their effect on cell proliferation, A-549 (lung cell line), HEP-2 (liver cell line), MCF-7 (breast cell line), monkey normal cell line (CV-1), OVCAR-5 (ovary cell line) and THP-1 (leukemia cell line) were treated at indicated concentration of 50 μM for 48 h. […] 5-flurouracil and adriyamycin were used as the positive controls; 5-flurouracil inhibited the growth of lung and leukemia cancer cell lines upto 75% and 83% respectively. Moreover adriyamycin used at 1 μM could inhibit the proliferation of MCF-7 cells upto 73%.
(§3) Cytotoxicity assay based on MTT was performed on a panel of cancer cell lines using brachiatin D as a test material. […] 5-flurouracil and adriyamycin were used as the positive controls; 5-flurouracil inhibited the growth of lung and leukemia cancer cell lines upto 73%, […] 88% respectively. Adriyamycin used at 1 μM could inhibit the proliferation of MCF-7 cells upto 77%.

THP-1 = test: cells; format: cell-based, human; settings: for % growth inhibition: THP-1, 20 μM, 20 µM
Method: as §1, §2, §3

MCF-7 = test: MTT cytotoxicity assay, MCF-7 breast cell line; format: cell-based, human; settings: for % growth inhibition: MCF-7, 1 μM
Method: as §1
Cytotoxicity assay was performed on a panel of cancer cell lines using fraction 4 (HF-4) as a test material. In order to determine their effect on cell proliferation, A-549 (lung cell line), HEP-2 (liver cell line), MCF-7 (breast cell line), monkey normal cell line (CV-1), OVCAR-5 (ovary cell line) and THP-1 (leukemia cell line) were treated at indicated concentration of 50 μM for 48 h. […]

HOP-62 = test: MTT cytotoxicity assay, HOP-62 lung cell line; format: cell-based, human
Method: as §1, §3

MiaPaCa-2 = test: MTT cytotoxicity assay, MiaPaCa-2 pancreatic cell line; format: cell-based, human; settings: MiaPaCa-2, 10 μM
Method: as §1, with “150 μl of working DMSO was added to solubilize the MTT formazan product.” left out, “The OD values at 570 nm obtained for each set of triplicates corresponding to a specific concentration of a peptaibol was then transferred into a spreadsheet program.” left out

PC-3 = test: MTT cytotoxicity assay, PC-3 prostate cell line; format: cell-based, human; settings: PC-3, 10 μM
Method: as §1, with “150 μl of working DMSO was added to solubilize the MTT formazan product.” left out, “The OD values at 570 nm obtained for each set of triplicates corresponding to a specific concentration of a peptaibol was then transferred into a spreadsheet program.” left out

lymphocyte proliferation = test: Lymphocyte proliferation assay (splenocytes, MTT); format: cell-based, mice; settings: concentration range 0.001 μM-10 μM
Text: For Lymphocyte Proliferation Assay, the organic crude extract and then the purified peptaibol was taken for lymphocyte proliferation assay to check their activity by the following procedure. The mice spleen was collected from a live animal after sacrificing it under aseptic conditions in HBSS. The spleen was then minced using a pair of scissors and passed through a fine steel mesh to obtain a homogeneous cell suspension and the erythrocytes were lysed with ammonium chloride (0.8%, w/v). After centrifugation (380×g at 4° C. for 10 min), the pelleted cells were washed three times with PBS and resuspended in complete medium [RPMI 1640 supplemented with 12 mM HEPES (pH 7.1), 0.05 mM 2-mercaptoethanol, 100 IU/mL penicillin, 100 µg/mL streptomycin and 10% FCS]. The cell number was counted with a haemocytometer by the trypan blue dye exclusion technique. Cell viability exceeded 95%.
Splenocytes (2×10^6 cells) were then seeded into a 96-well flat-bottom microtiter plate in 100 μl complete medium. Thereafter, variable doses of the test material along with LPS (1 μg/ml) to stimulate B cell proliferation were added giving a final volume of 200 μl. Test materials used in this assay were variable doses of the purified peptaibol (0.001, 0.01 and 0.1 μM). […] 200 μl of DMSO (192 μl DMSO with 8 μl IN HCl) was added to each well, and the absorbance was determined in an ELISA reader at 570 nm after 15 min. […]

TNF-α = TNF-α in LPS stimulated cell culture supernatant (ELISA); format: cell-based, mouse; settings: LPS 1 μg/ml, 24 h, dose dependent, 0.001-0.1 dose range
Method: (§4) For the estimation of pro-inflammatory cytokines (TNF-α, IL-1β and IL-6) in spleen cell culture supernatant, the splenocytes (2×10^6 cells) were seeded into a 96-well flat-bottom microtiter plate in 100 μl complete medium [RPMI 1640 supplemented with 12 mM HEPES (pH 7.1), 0.05 mM 2-mercaptoethanol, 100 IU/mL penicillin, 100 μg/mL streptomycin and 10% FCS]. Thereafter, variable does of purified peptaibol (brachiatin D) (0.001, 0.01 and 0.1 μM) were added giving a final volume of 200 μl. After subsequent stimulation with 1 μg/ml LPS for 24 h, the supernatants were harvested. The concentrations of TNF-α, IL-1β and IL-6 in culture supernatants were measured using mouse TNF-α, IL-1β and IL-6 ELISA kits (R&D Systems, USA), as per the instructions of the manufacturer
as §4, with “For” for “For the”, “medium.” for “medium [RPMI 1640 supplemented with 12 mM HEPES (pH 7.1), 0.05 mM 2-mercaptoethanol, 100 IU/mL penicillin, 100 μg/mL streptomycin and 10% FCS].”, “brachiatin D” for “peptaibol (brachiatin D)”, “manufacturer. […]” for “manufacturer”

IL-6 = IL-6 in LPS stimulated cell culture supernatant (ELISA); format: cell-based, mouse; settings: LPS 1 μg/ml, 24 h
Method: as §4
as §4, with “For” for “For the”, “medium.” for “medium [RPMI 1640 supplemented with 12 mM HEPES (pH 7.1), 0.05 mM 2-mercaptoethanol, 100 IU/mL penicillin, 100 μg/mL streptomycin and 10% FCS].”, “brachiatin D” for “peptaibol (brachiatin D)”, “manufacturer. […]” for “manufacturer”

IL-1β = IL-1β in LPS stimulated cell culture supernatant (ELISA); format: cell-based, mouse; settings: LPS 1 μg/ml, 24 h
Method: as §4
as §4, with “For” for “For the”, “medium.” for “medium [RPMI 1640 supplemented with 12 mM HEPES (pH 7.1), 0.05 mM 2-mercaptoethanol, 100 IU/mL penicillin, 100 μg/mL streptomycin and 10% FCS].”, “brachiatin D” for “peptaibol (brachiatin D)”, “manufacturer. […]” for “manufacturer”

NO = test: Inhibition of nitric oxide (nitrite) in LPS treated macrophages; format: cell-based, mouse
Method: NO is a short-lived molecule. […] Large quantity of nitrite is produced by macrophage when stimulated with LPS. But when cells were treated with brachiatin D, it was observed that brachiatin D inhibited LPS stimulated production of nitrite (p<0.001 at 0.001 μM dose).

With `CCC(C)C(CO)NC(=O)C1CCCN1C(=O)C(CC(C)C)NC(=O)C(CC(N)=O)NC(=O)C(C)(C)NC(=O)C1CCCN1C(=O)C(C)(C)NC(=O)C(CC(C)C)NC(=O)C(C)(C)NC(=O)C(CC(N)=O)NC(=O)C(C)(C)NC(C)=O` (stereo not drawn) [Brachiatin D, AcAib-Asn-Aib-Leu-Aib-Pro-Aib-Asn-Leu-Pro-Ileuol] (Ac-[Aib]N[Aib]L[Aib]P[Aib]NLP-X1; configuration not given here) the “% age growth inhibition” value (A-549) was 63%, the “% age growth inhibition” value (A-549; listed as brachiatin D) was at most 63% and the “% growth inhibition” value (A-549) was 96%. The “% growth inhibition” value (A-549; listed as brachiatin D) was over 95%, the “% age growth inhibition” value (THP-1; THP-1, 10 μM) was 56% and the “% growth inhibition” value (THP-1) was 77%. The “% growth inhibition” value (THP-1; listed as brachiatin D) was over 75%, the “% age growth inhibition” value (MCF-7; MCF-7, 10 μM) was 100% and the “sensitivity of the cell line to cytotoxic effects” value (HOP-62; HOP-62) was “much resistance”. The “% age growth inhibition” value (HOP-62; HOP-62, 10 μM) was 21%, the “% age growth inhibition” value (HOP-62; HOP-62, 20 μM) was 35% and the “% age growth inhibition” value (MiaPaCa-2) was 100%. For the same compound, the “% age growth inhibition” value (PC-3) was 100%, the “activity against lymphocyte proliferation” value (lymphocyte proliferation) was “good activity” and the “inhibition of TNF-α production” value (TNF-α) was “up to 42%”. For the same compound, the “effect on LPS induced IL-6” value (IL-6) was “inhibited”, the “effect on LPS induced IL-1β” value (IL-1β) was “inhibited” and the “LPS stimulated production of nitrite” value (NO; 0.001 μM dose, p<0.001) was “inhibited”. The NO production (NO; 0.1 μM, p<0.05) was “Marginal increase”.

In the case of `O=c1[nH]cc(F)c(=O)[nH]1` [5-Fluorouracil, reference compound], the “% growth inhibition” value (A-549) is reported as 75% and 73%, the inhibition at 20 µM (A-549; Homo sapiens, A549, A-549, 20 μM, read-out: % growth inhibition) is reported as at most 75% and the inhibition at 20 µM (THP-1; Homo sapiens, THP-1, THP-1, 20 μM, read-out: % growth inhibition) is reported as at most 83%. The “% growth inhibition” value (THP-1) was 83% and 88%, the “% age growth inhibition” value (HOP-62; HOP-62, 20 μM, 20 µM) was 81% and the inhibition at 20 µM (HOP-62; Homo sapiens, HOP-62, HOP-62, 20 μM, read-out: % age growth inhibition) was at most 81%.

`COc1cccc2c1C(=O)c1c(O)c3c(c(O)c1C2=O)C[C@@](O)(C(=O)CO)C[C@@H]3O[C@H]1C[C@H](N)[C@H](O)[C@H](C)O1` [Adriyamycin] was tested, and the “% growth inhibition” value (MCF-7) was 73% and the “% growth inhibition” value (MCF-7; 1 µM) was at most 73%.
